One assay deals with H358 cells. Kind of assay: H358 cell proliferation inhibition (CellTiter-Glo luminescent cell viability assay). The format is cell-based. The conditions noted are these: 7 days. The gist of the method:
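H358 cells seeded at 3000 cells/well in RPMI1640/10% FBS, treated with compound for 7 days at 37 °C/5% CO2. Viability read by CellTiter-Glo 3D luminescence, normalised to cell-free (100%) and compound-free (0%) controls; IC50 fitted from 8 concentrations by four-parameter curve.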
In general terms: ATP-based viability assays read luminescence as a measure of living cells.

Assay [1] relates to p-ERK pathway in H358 cells. Kind of assay: p-ERK pathway inhibition in H358 cells (Advanced phospho-ERK (Thr202/Tyr204) cellular kit, HTRF). The format is cell-based. In short, it runs like this: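 Serum-starved H358 cells (50000/well, overnight) treated with compound for 1 h at 37 °C, then lysed; phospho-ERK (Thr202/Tyr204) read by HTRF (665/620 nm ratio). Cell-free wells set 100% inhibition, untreated cells 0%; IC50 fitted from 8 concentrations by four-parameter curve.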

The mark [2] stands for this setting: Homo sapiens, NCI-H358, 1 h compound incubation.

In the case of `[2H][C@](C)(Nc1nc(C)nc2c(N3CCOC[C@@H]3C)c(=O)n(C3(CF)CC3)cc12)c1cccc(C(F)F)c1F` [Example 112, 4-(((R)-1-(3-(difluoromethyl)-2-fluorophenyl)ethyl-1-d)amino)-6-(1-(fluoromethyl)cyclopropyl)-2-methyl-8-((S)-3-methylmorpholine)pyrido[4,3-d]pyrimidine-7(6H)-one], the IC50 (usually the concentration at which inhibition is half-maximal) with H358 cells (Homo sapiens, NCI-H358, 168 h) amounted to 21.2 nM; in assay [1] (setting [2]), 109 nM.
As for `Cc1nc(N[C@H](C)c2cccc(C(F)F)c2F)c2cn(C3(CF)CC3)c(=O)c(N3CCC(N(C)C)CC3)c2n1` [Example 158], the IC50 with H358 cells (Homo sapiens, NCI-H358, 168 h) came to 12.5 nM; in assay [1] (setting [2]) it was 145 nM.
Take `Cc1nc(N[C@H](C)c2cccc(C(F)(F)F)c2C)c2cn(C3(CF)CC3)c(=O)c(N3CCOC[C@@H]3C)c2n1` [Example 56, 6-(1-(fluoromethyl)cyclopropyl)-2-methyl-4-(((R)-1-(2-methyl-3-(trifluoromethyl)phenyl)ethyl)amino)-8-((S)-3-methylmorpholine)pyrido[4,3-d]pyrimidine-7(6H)-one]: the IC50 with H358 cells (Homo sapiens, NCI-H358, 168 h) was 17.4 nM; in assay [1] (setting [2]), 42.4 nM.
For `Cc1nc(N[C@H](C)c2cccc(C(F)F)c2F)c2cn(C3(CF)CC3)c(=O)c(N3CCC(N4CCCC4)CC3)c2n1` [Example 159], in that order: 51.5 nM and 138 nM.
In the same order, the values of `Cc1nc(N[C@H](C)c2cccc(C(F)(F)F)c2C)c2cn(C3(CF)CC3)c(=O)c(N3CCO[C@H](C)C3)c2n1` [Example 85, 6-(1-(fluoromethyl)cyclopropyl)-2-methyl-4-(((R)-1-(2-methyl-3-(trifluoromethyl)phenyl)ethyl)amino)-8-((R)-2-methylmorpholine)pyrido[4,3-d]pyrimidine-7(6H)-one] are 97.2 nM and 41 nM.
For `[2H]C([2H])([2H])Oc1c(=O)n(N2CCOCC2)cc2c(N[C@H](C)c3cccc(C(F)F)c3F)nc(C)nc12` [Example 48, (R)-4-((1-(3-(difluoromethyl)-2-fluorophenyl)ethyl)amino)-8-(methoxy-d3)-2-methyl-6-morpholinepyrido[4,3-d]pyrimidine-7(6H)-one], in that order: 47.2 nM and 114 nM.
Consider `Cc1nc(N[C@H](C)c2cccc(C#N)c2C)c2cn(C3(CF)CC3)c(=O)c(N3CCOCC3)c2n1` [Example 47], for which the IC50 was 23.7 nM in the assay on H358 cells (Homo sapiens, NCI-H358, 168 h) and 37.5 nM in assay [1] (setting [2]).
For `[2H]C([2H])([2H])Oc1c(=O)n(C2(CF)CC2)cc2c(N[C@H](C)c3cccc([N+](=O)[O-])c3C)nc(C)nc12` [Example 30, (R)-6-(1-(fluoromethyl)cyclopropyl)-8-(methoxy-d3)-2-methyl-4-((1-(2-methyl-3-nitrophenyl)ethyl)amino)pyrido[4,3-d]pyrimidine-7(6H)-one], in that order: 33.6 nM and 29.5 nM.
In the same order, the values of `Cc1nc(N[C@H](C)c2cccc(C#N)c2C)c2cn(N3CCOCC3)c(=O)c(N3CCOC[C@@H]3C)c2n1` [Example 110, 2-methyl-3-((R)-1-((2-methyl-8-((S)-3-methylmorpholine)-6-morpholine-7-oxo-6,7-dihydropyrido[4,3-d]pyrimidin-4-yl)amino)ethyl)benzonitrile] are 50.4 nM and 73.6 nM.
Turning to `Cc1nc(N[C@H](C)c2cccc(C(F)F)c2F)c2cn(C3(CF)CC3)c(=O)c(N3CCN(C(C)C)CC3)c2n1` [Example 94, (R)-4-((1-(3-(difluoromethyl)-2-fluorophenyl)ethyl)amino)-6-(1-(fluoromethyl)cyclopropyl)-8-(4-isopropylpiperazin-1-yl)-2-methylpyrido[4,3-d]pyrimidine-7(6H)-one], the IC50 in the assay on H358 cells (Homo sapiens, NCI-H358, 168 h) came to 16.8 nM; in assay [1] (setting [2]), 60.9 nM.
As for “(R)-4-((1-(3-(difluoromethyl)-2-fluorophenyl)ethyl)amino)-6-(1-(fluoromethyl)cyclopropyl)-8-(2-hydroxyprop-2-yl)-2-methylpyrido[4,3-d]pyrimidine-7(6H)-one [Example 144]”, the values for the half-maximal inhibitory concentration (IC50) (in the assay with H358 cells; in assay [1] (1 h compound incubation)) were 105 nM and 40 nM, respectively.
`Cc1nc(N[C@H](C)c2cccc(C(F)F)c2F)c2cn(C3(CF)CC3)c(=O)c(N(C)c3cnn(C)c3)c2n1` [Example 65, (R)-4-((1-(3-(difluoromethyl)-2-fluorophenyl)ethyl)amino)-6-(1-(fluoromethyl)cyclopropyl)-2-methyl-8-(methyl(1-methyl-1H-pyrazol-4-yl)amino)pyrido[4,3-d]pyrimidine-7(6H)-one]: the half-maximal inhibitory concentration (IC50) with H358 cells (Homo sapiens, NCI-H358, 168 h) came to 66.4 nM; in assay [1] (setting [2]) it was 27 nM.
In the same order, the values of `COc1c(=O)n(C2(CF)CC2)cc2c(N[C@H](C)c3cccc([N+](=O)[O-])c3C)nc(C)nc12` [Example 29, (R)-6-(1-(fluoromethyl)cyclopropyl)-8-methoxy-2-methyl-4-((1-(2-methyl-3-nitrophenyl)ethyl)amino)pyrido[4,3-d]pyrimidine-7(6H)-one] are 78.7 nM and 71 nM.
In the same order, the values of `Cc1nc(N[C@H](C)c2cccc(C(F)F)c2F)c2cn(C3(CF)CC3)c(=O)c(N3CCc4cn(C)nc4C3)c2n1` [Example 98, (R)-4-((1-(3-(difluoromethyl)-2-fluorophenyl)ethyl)amino)-6-(1-(fluoromethyl)cyclopropyl)-2-methyl-8-(2-methyl-2,4,5,7-tetrahydro-6H-pyrazolo[3,4-c]pyridin-6-yl)pyrido[4,3-d]pyrimidine-7(6H)-one] are 44 nM and 55.6 nM.
In the same order, the values of `Cc1nc(N[C@H](C)c2cccc(S(F)(F)(F)(F)F)c2)c2cn(C3(CF)CC3)c(=O)c(N3CCOCC3)c2n1` [Example 46, (R)-6-(1-(fluoromethyl)cyclopropyl)-2-methyl-8-morpholino-4-((1-(3-(pentafluoro-λ^6-sulfanyl)phenyl)ethyl)amino)pyrido[4,3-d]pyrimidine-7(6H)-one] are 74.8 nM and 112 nM.
With `Cc1nc(N[C@H](C)c2cccc(C(F)F)c2F)c2cn(C3(CF)CC3)c(=O)c(S(C)(=O)=O)c2n1` [Example 66, (R)-4-((1-(3-(difluoromethyl)-2-fluorophenyl)ethyl)amino)-6-(1-(fluoromethyl)cyclopropyl)-2-methyl-8-(methylsulfonyl)pyrido[4,3-d]pyrimidine-7(6H)-one], the IC50 stood at 79 nM with H358 cells (Homo sapiens, NCI-H358, 168 h) and 76.8 nM in assay [1] (setting [2]).
For `Cc1nc(N[C@H](C)c2cccc(C(F)F)c2F)c2cn(C3(CF)CC3)c(=O)c(N3CCC4(CC3)COC4)c2n1` [Example 151, (R)-4-((1-(3-(difluoromethyl)-2-fluorophenyl)ethyl)amino)-6-(1-(fluoromethyl)cyclopropyl)-2-methyl-8-(2-oxa-7-azaspiro[3.5]nonan-7-yl)pyrido[4,3-d]pyrimidine-7(6H)-one], in that order: 73.1 nM and 41.7 nM.
In the same order, the values of `Cc1nc(N[C@H](C)c2cccc(C(F)F)c2F)c2cn(C3(CF)CC3)c(=O)c(-c3cnn4c3COCC4)c2n1` [Example 176] are 132 nM and 126 nM.
For `[2H][C@](C)(Nc1nc(C)nc2c(N3CCC(S(C)(=O)=O)CC3)c(=O)n(C3(CF)CC3)cc12)c1cccc(C(F)F)c1F` [Example 125, (R)-4-((1-(3-(difluoromethyl)-2-fluorophenyl)ethyl-1-d)amino)-6-(1-(fluoromethyl)cyclopropyl)-2-methyl-8-(4-(methylsulfonyl)piperidin-1-yl)pyrido[4,3-d]pyrimidine-7(6H)-one], in that order: 35.6 nM and 59.8 nM.
As for `[2H][C@](C)(Nc1nc(C)nc2c(N3CCOCC3)c(=O)n(N3CCOCC3)cc12)c1cccc(C(F)F)c1F` [Example 78, (R)-4-((1-(3-(difluoromethyl)-2-fluorophenyl)ethyl-1-d)amino)-2-methyl-6,8-dimorpholinepyrido[4,3-d]pyrimidine-7(6H)-one], the IC50 was 71.1 nM with H358 cells (Homo sapiens, NCI-H358, 168 h) and 39.6 nM in assay [1] (setting [2]).
With `CC(=O)N1CCN(c2c(=O)n(C3(CF)CC3)cc3c(N[C@H](C)c4cccc(C(F)F)c4F)nc(C)nc23)CC1` [Example 49], the IC50 in the assay with H358 cells (Homo sapiens, NCI-H358, 168 h) is 10.1 nM; in assay [1] (setting [2]) it was 62.6 nM.
For `COC1(c2c(=O)n(C3(CF)CC3)cc3c(N[C@H](C)c4cccc(C(F)F)c4F)nc(C)nc23)COC1` [Example 150, (R)-4-((1-(3-(difluoromethyl)-2-fluorophenyl)ethyl)amino)-6-(1-(fluoromethyl)cyclopropyl)-8-(3-methoxyoxetan-3-yl)-2-methylpyrido[4,3-d]pyrimidine-7(6H)-one], in that order: 68.7 nM and 42.8 nM.
Regarding `Cc1nc(N[C@H](C)c2cccc(C(F)F)c2F)c2cn(N3CCOCC3)c(=O)c(N3CCOC[C@@H]3C)c2n1` [Example 68, 4-(((R)-1-(3-(difluoromethyl)-2-fluorophenyl)ethyl)amino)-2-methyl-8-((S)-3-methylmorpholine)-6-morpholinepyrido[4,3-d]pyrimidine-7(6H)-one], the IC50 is 25.2 nM in the assay with H358 cells (Homo sapiens, NCI-H358, 168 h) and 15.3 nM in assay [1] (setting [2]).
For `COc1c(=O)n(N2CCOCC2)cc2c(N[C@H](C)c3cccc(S(F)(F)(F)(F)F)c3)nc(C)nc12` [Example 25], in that order: 35.7 nM and 107 nM.
For `Cc1nc(N[C@H](C)c2cccc(C(F)F)c2F)c2cn(C3(CF)CC3)c(=O)c(-n3ncc4ncccc43)c2n1` [Example 104, (R)-4-((1-(3-(difluoromethyl)-2-fluorophenyl)ethyl)amino)-6-(1-(fluoromethyl)cyclopropyl)-2-methyl-8-(1H-pyrazolo[4,3-b]pyridin-1-yl)pyrido[4,3-d]pyrimidine-7(6H)-one], in that order: 145 nM and 57.5 nM.

(Values after patent EP4417607A1, “HETEROCYCLIC COMPOUND AS SOS1 INHIBITOR AND USES THEREOF” (Nanjing Zaiming Pharmaceutical Co., Ltd., priority 2021, dated 2023).)
